Assay results taken from patent US12583861B2, “Derivatives of imidazo[4,5-d]pyridazine, their preparation and their therapeutic application” (SANOFI, priority 2021, dated 2026).
Where a name gives a salt, the structure may show the parent alone.

Legend:
human TLR7 = molecular target: T1, human TLR7 (Homo sapiens, UniProt Q9NYK1); test: HEK-Blue hTLR7 reporter cell assay (SEAP, NF-kB/AP-1) for stimulation of human TLR7; assay type: cell-based; conditions: HEK-Blue hTLR7 cells, 24 h incubation, SEAP readout; read-out: TLR7_EC50
T1 construct: host or cells: HEK293 (HEK-Blue hTLR7)
T1 sequence (Q9NYK1 27-1049): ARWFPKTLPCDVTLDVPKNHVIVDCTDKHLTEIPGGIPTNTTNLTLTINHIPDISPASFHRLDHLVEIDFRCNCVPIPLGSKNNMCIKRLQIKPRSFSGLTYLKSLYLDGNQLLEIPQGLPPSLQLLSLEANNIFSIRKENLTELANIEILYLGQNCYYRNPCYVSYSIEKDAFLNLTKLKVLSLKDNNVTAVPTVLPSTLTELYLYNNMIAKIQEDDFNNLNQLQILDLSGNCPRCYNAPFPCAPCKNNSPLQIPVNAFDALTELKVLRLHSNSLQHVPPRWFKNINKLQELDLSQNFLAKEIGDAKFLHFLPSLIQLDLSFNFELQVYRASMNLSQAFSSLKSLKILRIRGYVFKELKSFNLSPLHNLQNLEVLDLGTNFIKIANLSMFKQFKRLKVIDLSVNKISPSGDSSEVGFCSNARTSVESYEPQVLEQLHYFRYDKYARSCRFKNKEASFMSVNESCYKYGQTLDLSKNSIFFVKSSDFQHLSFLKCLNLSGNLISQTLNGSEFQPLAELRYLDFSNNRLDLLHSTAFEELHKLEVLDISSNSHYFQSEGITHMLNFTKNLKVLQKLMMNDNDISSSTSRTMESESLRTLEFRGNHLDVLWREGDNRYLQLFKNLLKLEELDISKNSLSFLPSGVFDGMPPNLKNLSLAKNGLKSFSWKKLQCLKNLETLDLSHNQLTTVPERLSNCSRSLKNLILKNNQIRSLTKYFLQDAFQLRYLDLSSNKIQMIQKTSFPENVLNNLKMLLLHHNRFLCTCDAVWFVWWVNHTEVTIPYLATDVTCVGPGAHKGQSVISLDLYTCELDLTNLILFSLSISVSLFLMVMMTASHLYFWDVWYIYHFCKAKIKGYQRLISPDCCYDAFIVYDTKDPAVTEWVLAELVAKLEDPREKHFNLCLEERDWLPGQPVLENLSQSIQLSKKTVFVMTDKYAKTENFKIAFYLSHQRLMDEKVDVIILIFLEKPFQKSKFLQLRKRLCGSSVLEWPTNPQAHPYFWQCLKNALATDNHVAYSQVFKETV
Procedure, shortened: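 HEK293 cells expressing hTLR7 with NF-κB/AP-1-driven SEAP reporter, seeded 3.10E4 cells/well, pre-incubated 18–24 h, then exposed to 3-fold compound dilutions (0.01–20 μM) for 24 h at 37 °C. Supernatant SEAP read with QUANTI-Blue; EC50 as concentration giving 50% activation.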

human TLR8 = molecular target: T2, human TLR8 (Homo sapiens, UniProt Q9NR97); test: HEK-Blue hTLR8 reporter cell assay (SEAP, NF-kB/AP-1) for stimulation of human TLR8; assay type: cell-based; conditions: HEK-Blue hTLR8 cells; for EC50: 24 h incubation, SEAP readout, read-out: TLR8_EC50
T2 construct: host or cells: HEK293 (HEK-Blue hTLR8)
T2 sequence (Q9NR97 27-1041): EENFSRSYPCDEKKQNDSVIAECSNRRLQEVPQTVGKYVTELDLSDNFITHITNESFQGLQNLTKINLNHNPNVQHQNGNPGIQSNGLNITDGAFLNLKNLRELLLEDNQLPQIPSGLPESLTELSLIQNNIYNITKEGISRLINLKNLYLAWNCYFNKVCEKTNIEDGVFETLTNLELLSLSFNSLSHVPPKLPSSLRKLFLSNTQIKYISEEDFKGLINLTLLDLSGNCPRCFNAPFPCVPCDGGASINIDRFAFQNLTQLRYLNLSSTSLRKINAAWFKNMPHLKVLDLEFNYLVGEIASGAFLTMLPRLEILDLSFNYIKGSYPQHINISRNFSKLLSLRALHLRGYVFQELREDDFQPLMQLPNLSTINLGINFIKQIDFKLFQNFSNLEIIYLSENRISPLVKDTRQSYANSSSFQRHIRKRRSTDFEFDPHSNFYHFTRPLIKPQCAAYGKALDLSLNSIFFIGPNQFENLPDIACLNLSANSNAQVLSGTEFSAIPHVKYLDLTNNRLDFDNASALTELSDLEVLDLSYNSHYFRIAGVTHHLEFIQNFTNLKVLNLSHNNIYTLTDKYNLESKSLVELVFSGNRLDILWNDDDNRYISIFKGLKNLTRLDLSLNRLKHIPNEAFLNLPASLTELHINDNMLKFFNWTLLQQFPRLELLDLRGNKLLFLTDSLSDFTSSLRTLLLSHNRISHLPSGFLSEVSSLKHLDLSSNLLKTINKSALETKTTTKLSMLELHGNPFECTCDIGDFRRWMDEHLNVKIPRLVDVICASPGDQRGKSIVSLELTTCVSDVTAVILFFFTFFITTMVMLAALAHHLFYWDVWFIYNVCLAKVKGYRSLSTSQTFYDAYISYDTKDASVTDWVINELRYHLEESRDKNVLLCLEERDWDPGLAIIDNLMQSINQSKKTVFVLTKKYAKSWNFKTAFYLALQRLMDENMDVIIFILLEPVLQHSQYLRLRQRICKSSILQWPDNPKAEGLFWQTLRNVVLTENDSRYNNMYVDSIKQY
Procedure, shortened: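 HEK293 cells carrying hTLR8 and a SEAP reporter driven by NF-κB/AP-1 sites were seeded at 3.10E4 cells/well and held 18 to 24 h at 37° C., 5% CO2 before compound addition. Supernatant SEAP measured with QUANTI-Blue™.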

EC50 (human TLR7) [µM] | EC50 (human TLR8) [µM] | activation at 20 µM (human TLR8; 24 h, at 20000 nM) [%] | SMILES
0.034 | 1.82 |  | CCCCc1nc2c(N)nnc(OC(C)C)c2n1Cc1ccc(CN(C)C)cc1 [Compound 116, 2-butyl-1-(4-((dimethylamino)methyl)benzyl)-7-isopropoxy-1H-imidazo[4,5-d]pyridazin-4-amine]
0.136 | 0.252 |  | CCCCc1nc2c(N)nnc(-c3cc[nH]c3)c2n1Cc1ccc(CN)cc1 [Compound 135, 1-(4-(aminomethyl)benzyl)-2-butyl-7-(1H-pyrrol-3-yl)-1H-imidazo[4,5-d]pyridazin-4-amine 2,2,2-trifluoroacetate]
> 20 |  | 22.7 | CCCCc1nc2c(N)nnc(-c3cc[nH]n3)c2n1Cc1ccc(OC)cc1 [Compound 96, 2-butyl-1-(4-methoxybenzyl)-7-(1H-pyrazol-3-yl)-1H-imidazo[4,5-d]pyridazin-4-amine]
0.114 | > 20 |  | CCCCc1nc2c(N)nnc(OC(C)C)c2n1Cc1ccc(CNCCOCCOCCOCCOCCOCCOC)cc1 [Compound 105, 2-butyl-4-isopropoxy-3-[[4-[[2-[2-[2-[2-[2-(2-methoxyethoxy)ethoxy]ethoxy]ethoxy]ethoxy]ethylamino]methyl]phenyl]methyl]imidazo[4,5-d]pyridazin-7-amine]
0.0204 | 7.72 |  | CCCCc1nc2c(N)nnc(OC(C)C)c2n1CCCCCCNC1CCOCC1 [Compound 147, 2-butyl-4-isopropoxy-3-[6-(tetrahydropyran-4-ylamino)hexyl]imidazo[4,5-d]pyridazin-7-amine; dihydrochloride]
0.247 | > 20 |  | CCOCc1nc2c(N)nnc(OC(C)C)c2n1Cc1ccc(CN)cc1 [Compound 159, 1-(4-(aminomethyl)benzyl)-2-(ethoxymethyl)-7-isopropoxy-1H-imidazo[4,5-d]pyridazin-4-amine]
11.2 | > 20 |  | CCCCc1nc2c(N)nnc(OC(C)C)c2n1CCCCN(C(C)=O)C1CCOCC1 [Compound 151, N-[4-(7-amino-2-butyl-4-isopropoxy-imidazo[4,5-d]pyridazin-3-yl)butyl]-N-tetrahydropyran-4-yl-acetamide]

More lines, now with the values behind:

SMILES | EC50 (human TLR7) [µM] | EC50 (human TLR8) [µM] | activation at 20 µM (human TLR8; 24 h, at 20000 nM) [%]
CCCCc1nc2c(N)nnc(OC(C)C)c2n1Cc1ccc(CNCCOCCOC)cc1 [Compound 108, 2-butyl-7-isopropoxy-1-(4-(((2-(2-methoxyethoxy)ethyl)amino)methyl)benzyl)-1H-imidazo[4,5-d]pyridazin-4-amine] | 0.029 | 1.4 | 
CCCCc1nc2c(N)nnc(N(C)Cc3ccc(C#N)cc3)c2n1C [Compound 45, 4-(((4-amino-2-butyl-1-methyl-1H-imidazo[4,5-d]pyridazin-7-yl)(methyl)amino)methyl)benzonitrile] | > 20 | 9.42 | 
CCCCc1nc2c(N)nnc(OC(C)C)c2n1Cc1ccc(CN2CCCC2)cc1 [Compound 101, 2-butyl-7-isopropoxy-1-(4-(pyrrolidin-1-ylmethyl)benzyl)-1H-imidazo[4,5-d]pyridazin-4-amine] | 0.013 | 0.355 | 
CCCCc1nc2c(N)nnc(OC(C)C)c2n1Cc1ccc(CNCCC(=O)OC(C)(C)C)cc1 [Compound 119, tert-butyl 3-((4-((4-amino-2-butyl-7-isopropoxy-1H-imidazo[4,5-d]pyridazin-1-yl)methyl)benzyl)amino)propanoate] | 0.143 | 2.13 | 
CCCCc1nc2c(N)nnc(OC(C)C)c2n1Cc1cccc(CNC2CS(=O)(=O)C2)c1 [Compound 129, 3-((3-((4-amino-2-butyl-7-isopropoxy-1H-imidazo[4,5-d]pyridazin-1-yl)methyl)benzyl)amino)thietane 1,1-dioxide] | 1.55 | 6.26 | 
CCCCCCCCCCNCc1ccc(Cn2c(CCCC)nc3c(N)nnc(OC(C)C)c32)cc1 [Compound 110, 2-butyl-1-(4-((decylamino)methyl)benzyl)-7-isopropoxy-1H-imidazo[4,5-d]pyridazin-4-amine] | 0.734 | 2.85 | 
CCCCc1nc2c(N)nnc(OC(C)C)c2n1Cc1ccc(CNC(=O)OCc2ccc(NC(C)=O)cc2)cc1 [Compound 114, 4-acetamidobenzyl (4-((4-amino-2-butyl-7-isopropoxy-1H-imidazo[4,5-d]pyridazin-1-yl)methyl)benzyl)carbamate] | 0.163 | > 6.34 | 
CCCCc1nc2c(N)nnc(OC(C)C)c2n1Cc1ccc(CNCCOCCOCCOC)cc1 [Compound 120, 1-(4-(5,8,11-trioxa-2-azadodecyl)benzyl)-2-butyl-7-isopropoxy-1H-imidazo[4,5-d]pyridazin-4-amine] | 0.133 | 14.4 | 
CCCCc1nc2c(N)nnc(N(C)Cc3ccc(CN(C)CCOC)cc3)c2n1C [Compound 47, 2-butyl-N7-(4-(((2-methoxyethyl)(methyl)amino)methyl)benzyl)-N7,1-dimethyl-1H-imidazo[4,5-d]pyridazine-4,7-diamine] | 0.421 | 0.223 | 
CCCCc1nc2c(N)nnc(N3CCCC3)c2n1C [Compound 42, 2-butyl-1-methyl-7-(pyrrolidin-1-yl)-1H-imidazo[4,5-d]pyridazin-4-amine] | 1.48 | 8.78 | 
CCCCc1nc2c(N)nnc(OC(C)C)c2n1Cc1ccc(CN)cn1 [Compound 26, 1-((5-(aminomethyl)pyridin-2-yl)methyl)-2-butyl-7-isopropoxy-1H-imidazo[4,5-d]pyridazin-4-amine] | 0.144 | > 20 | 
CCCCc1nc2c(N)nnc(/C=C/C(C)C)c2n1C[C@H]1CC[C@H](N)CC1 [Compound 139, 1-(((1R,4R)-4-aminocyclohexyl)methyl)-2-butyl-7-((E)-3-methylbut-1-en-1-yl)-1H-imidazo[4,5-d]pyridazin-4-amine] | 0.37 | > 20 | 
CCCCc1nc2c(N)nnc(OC(C)C)c2n1Cc1ccc(CNCCOCCOCCOCCOCCOCCOCCOCCOC)cc1 [Compound 122, 2-butyl-4-isopropoxy-3-[[4-[[2-[2-[2-[2-[2-[2-[2-(2-methoxyethoxy)ethoxy]ethoxy]ethoxy]ethoxy]ethoxy]ethoxy]ethylamino]methyl]phenyl]methyl]imidazo[4,5-d]pyridazin-7-amine di2,2,2-trifluoroacetate] | 0.729 | > 20 | 
CCCCc1nc2c(N)nnc(OC(C)C)c2n1CCN1CCNCC1 [Compound 79, 2-butyl-7-isopropoxy-1-(2-(piperazin-1-yl)ethyl)-1H-imidazo[4,5-d]pyridazin-4-amine] | 9.71 | > 20 | 
